The assay deals with Sodium channel protein type 5 subunit alpha (Homo sapiens, UniProt Q14524). Put plainly: Inhibition of human Nav1.5 expressed in HEK293 cells assessed as inhibition of sodium current at holding potential of -125 mV measured for 3 to 5 mins by whole cell voltage clamp method.

SMILES strings stand for the structures. A value given as a limit tells only on which side of the number the result lay.

What is called IC50 is the concentration needed to halve the response being measured.

Sodium channel protein type 5 subunit alpha, sequence (Q14524 whole entry): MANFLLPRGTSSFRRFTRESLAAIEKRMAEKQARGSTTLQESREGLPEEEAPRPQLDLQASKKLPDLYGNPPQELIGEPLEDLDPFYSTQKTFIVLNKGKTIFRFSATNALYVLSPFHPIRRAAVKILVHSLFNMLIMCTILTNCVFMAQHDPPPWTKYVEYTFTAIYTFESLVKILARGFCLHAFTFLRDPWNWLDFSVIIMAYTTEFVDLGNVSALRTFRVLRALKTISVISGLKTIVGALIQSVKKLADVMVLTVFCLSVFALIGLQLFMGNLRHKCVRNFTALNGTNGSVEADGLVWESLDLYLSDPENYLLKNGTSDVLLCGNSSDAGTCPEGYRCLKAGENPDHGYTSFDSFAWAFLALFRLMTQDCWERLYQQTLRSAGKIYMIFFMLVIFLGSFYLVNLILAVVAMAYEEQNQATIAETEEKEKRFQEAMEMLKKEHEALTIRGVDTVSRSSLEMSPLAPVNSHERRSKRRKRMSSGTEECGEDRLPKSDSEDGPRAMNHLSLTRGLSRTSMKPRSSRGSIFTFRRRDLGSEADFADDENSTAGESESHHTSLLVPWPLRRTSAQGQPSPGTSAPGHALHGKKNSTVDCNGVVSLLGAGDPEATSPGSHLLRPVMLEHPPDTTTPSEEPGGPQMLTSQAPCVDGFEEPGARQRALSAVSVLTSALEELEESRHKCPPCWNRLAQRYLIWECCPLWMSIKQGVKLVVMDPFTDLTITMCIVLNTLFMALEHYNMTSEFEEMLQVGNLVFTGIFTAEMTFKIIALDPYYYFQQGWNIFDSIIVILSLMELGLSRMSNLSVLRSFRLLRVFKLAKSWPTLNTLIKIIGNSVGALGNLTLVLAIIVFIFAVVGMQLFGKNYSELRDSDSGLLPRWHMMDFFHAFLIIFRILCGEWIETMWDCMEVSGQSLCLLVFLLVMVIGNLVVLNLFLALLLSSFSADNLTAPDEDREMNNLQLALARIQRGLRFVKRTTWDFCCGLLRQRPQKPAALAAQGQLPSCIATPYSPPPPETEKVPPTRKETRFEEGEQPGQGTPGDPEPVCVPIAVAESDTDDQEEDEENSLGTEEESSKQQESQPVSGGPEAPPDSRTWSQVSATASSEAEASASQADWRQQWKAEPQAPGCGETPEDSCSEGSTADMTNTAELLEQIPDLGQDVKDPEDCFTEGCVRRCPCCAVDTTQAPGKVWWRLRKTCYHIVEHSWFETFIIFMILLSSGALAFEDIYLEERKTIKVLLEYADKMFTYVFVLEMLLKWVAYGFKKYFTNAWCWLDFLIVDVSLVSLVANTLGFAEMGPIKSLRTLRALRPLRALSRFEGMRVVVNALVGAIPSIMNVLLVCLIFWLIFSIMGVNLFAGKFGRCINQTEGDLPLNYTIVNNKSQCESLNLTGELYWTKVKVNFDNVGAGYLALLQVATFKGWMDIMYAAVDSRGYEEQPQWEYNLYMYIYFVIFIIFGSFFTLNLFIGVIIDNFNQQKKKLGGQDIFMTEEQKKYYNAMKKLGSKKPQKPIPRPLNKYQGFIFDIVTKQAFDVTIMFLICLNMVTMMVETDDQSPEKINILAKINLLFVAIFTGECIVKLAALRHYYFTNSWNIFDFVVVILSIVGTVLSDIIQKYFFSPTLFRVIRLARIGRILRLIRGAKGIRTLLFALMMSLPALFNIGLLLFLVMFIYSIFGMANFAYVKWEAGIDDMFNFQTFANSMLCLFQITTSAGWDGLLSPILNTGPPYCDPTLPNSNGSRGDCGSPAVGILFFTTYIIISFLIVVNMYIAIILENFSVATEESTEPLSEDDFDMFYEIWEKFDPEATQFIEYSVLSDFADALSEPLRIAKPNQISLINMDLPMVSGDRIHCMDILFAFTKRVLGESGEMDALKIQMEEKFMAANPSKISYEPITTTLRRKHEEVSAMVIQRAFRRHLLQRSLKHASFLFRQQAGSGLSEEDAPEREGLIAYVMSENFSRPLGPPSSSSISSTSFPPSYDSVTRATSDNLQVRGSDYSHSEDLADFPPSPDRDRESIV

For the compound `COc1cc(C(F)(F)F)ccc1-c1cnnc2cc(S(=O)(=O)Nc3nccs3)ccc12` [US9012443, 259], the IC50 was above 30 µM.

For the compound `COc1cc(C(F)(F)F)ccc1-c1n[nH]c(=O)c2cc(S(=O)(=O)Nc3nccs3)ccc12` [US9012443, 293], the concentration for half-maximal inhibition (IC50) was above 30 µM.
